In patent US20250230193A1, “CYCLIC COMPOUND HAVING SELECTIVE KRAS INHIBITORY EFFECT ON HRAS AND NRAS” (CHUGAI SEIYAKU KABUSHIKI KAISHA, priority 2022, published 2025):

Legend:
[1] = biological target: GDP-bound NRAS wild-type protein (Homo sapiens, UniProt P01111); assay: Binding to NRAS by surface plasmon resonance (SPR), Single Cycle Kinetics; details: SPR; KD ratio class
[2] = biological target: GDP-bound HRAS wild-type protein (Homo sapiens, UniProt P01112); assay: Binding to HRAS by surface plasmon resonance (SPR), Single Cycle Kinetics; details: SPR; KD ratio class
[3] = system: human lung cancer strain NCI-H441; assay: cells; details: NCI-H441, 96 h, read-out: NCI-H441 IC50 (nM)

Sequence of GDP-bound HRAS wild-type protein (P01112 whole entry): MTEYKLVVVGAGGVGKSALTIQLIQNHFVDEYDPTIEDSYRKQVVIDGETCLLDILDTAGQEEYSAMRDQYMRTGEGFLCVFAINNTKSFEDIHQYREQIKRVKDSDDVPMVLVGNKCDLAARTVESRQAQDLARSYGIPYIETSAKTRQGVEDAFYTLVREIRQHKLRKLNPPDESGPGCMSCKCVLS
Sequence of GDP-bound NRAS wild-type protein (P01111 whole entry): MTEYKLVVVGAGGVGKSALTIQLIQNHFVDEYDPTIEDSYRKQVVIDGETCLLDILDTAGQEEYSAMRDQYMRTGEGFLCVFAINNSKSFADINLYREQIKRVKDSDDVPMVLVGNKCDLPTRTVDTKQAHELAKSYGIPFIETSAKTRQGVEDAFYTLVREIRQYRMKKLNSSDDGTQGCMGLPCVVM

SMILES | NRAS/KRAS (ratio of KD value for GDP-bound NRAS wild-type protein to KD value for KRAS) [1] | HRAS/KRAS (ratio of KD value for GDP-bound HRAS wild-type protein to KD value for KRAS) [2] | IC50 [3]
CCO[C@@H]1C[C@H]2C(=O)NC3(CCC3)C(=O)N(C)[C@@H](C(CC)CC)C(=O)N(C)[C@H](C(=O)N3CCOCC3)CC(=O)N(C)[C@@H](CC)C(=O)N[C@@H]([C@@H](C)CC)C(=O)N(C)CC(=O)N(C)[C@H]3C/C=C\CCN(C3=O)[C@@H](Cc3ccc(C(F)(F)F)cc3)C(=O)N(C)CC(=O)N[C@@H](CCc3cc(F)c(C(F)(F)F)c(F)c3)C(=O)N2C1 [PP1286] | AA (a compound having 20 or more is denoted as AA) | A (a compound having 10 or more and less than 20 is denoted as A) | 58.8 nM
CCO[C@@H]1C[C@H]2C(=O)NC3(CCC3)C(=O)N(C)[C@@H](C(CC)CC)C(=O)N(C)[C@H](C(=O)N3CCOCC3)CC(=O)N(C)[C@@H](CC(C)C)C(=O)N[C@@H]([C@@H](C)CC)C(=O)N(C)CC(=O)N(C)[C@H]3C/C=C\CCN(C3=O)[C@@H](Cc3ccc(C(F)(F)F)cc3)C(=O)N(C)CC(=O)N[C@@H](CCc3cc(F)c(C(F)(F)F)c(F)c3)C(=O)N2C1 [PP1287] | AA (a compound having 20 or more is denoted as AA) | A (a compound having 10 or more and less than 20 is denoted as A) | 49.7 nM
CCC[C@H]1C(=O)N[C@@H]([C@@H](C)CC)C(=O)N(C)CC(=O)N(C)[C@H]2C/C=C\CCN(C2=O)[C@@H](Cc2ccc(C(F)(F)F)cc2)C(=O)N(C)CC(=O)N[C@@H](CCc2cc(F)c(C(F)(F)F)c(F)c2)C(=O)N2C[C@H](OCC)C[C@H]2C(=O)NC2(CCC2)C(=O)N(C)[C@@H](C2CCCC2)C(=O)N(C)[C@H](C(=O)N2CCOCC2)CC(=O)N1C [PP1288] | AA (a compound having 20 or more is denoted as AA) | A (a compound having 10 or more and less than 20 is denoted as A) | 22.2 nM
CCO[C@@H]1C[C@H]2C(=O)NC3(CCC3)C(=O)N(C)[C@@H](C3CCCC3)C(=O)N(C)[C@H](C(=O)N3CCCCC3)CC(=O)N(C)[C@@H](CC)C(=O)N[C@@H]([C@@H](C)CC)C(=O)N(C)CC(=O)N(C)[C@H]3C/C=C\CCN(C3=O)[C@@H](Cc3ccc(C(F)(F)F)cc3)C(=O)N(C)CC(=O)N[C@@H](CCc3cc(F)c(C(F)(F)F)c(F)c3)C(=O)N2C1 [PP1289] | AA (a compound having 20 or more is denoted as AA) | A (a compound having 10 or more and less than 20 is denoted as A) | 34.7 nM
CCO[C@@H]1C[C@H]2C(=O)NC3(CCC3)C(=O)N(C)[C@@H](C3CCCC3)C(=O)N(C)[C@H](C(=O)N3CCCCC3)CC(=O)N(C)[C@@H](CC(C)C)C(=O)N[C@@H]([C@@H](C)CC)C(=O)N(C)CC(=O)N(C)[C@H]3C/C=C\CCN(C3=O)[C@@H](Cc3ccc(C(F)(F)F)cc3)C(=O)N(C)CC(=O)N[C@@H](CCc3cc(F)c(C(F)(F)F)c(F)c3)C(=O)N2C1 [PP1290] | AA (a compound having 20 or more is denoted as AA) | A (a compound having 10 or more and less than 20 is denoted as A) | 15.4 nM
CCO[C@@H]1C[C@H]2C(=O)NC3(CCC3)C(=O)N(C)[C@@H](C3CCCC3)C(=O)N(C)[C@H](C(=O)N3CCCCC3)CC(=O)N(C)[C@@H](CC3CC3)C(=O)N[C@@H]([C@@H](C)CC)C(=O)N(C)CC(=O)N(C)[C@H]3C/C=C\CCN(C3=O)[C@@H](Cc3ccc(C(F)(F)F)cc3)C(=O)N(C)CC(=O)N[C@@H](CCc3cc(F)c(C(F)(F)F)c(F)c3)C(=O)N2C1 [PP1291] | A (a compound having 10 or more and less than 20 is denoted as A) | A (a compound having 10 or more and less than 20 is denoted as A) | 16.7 nM
CCO[C@@H]1C[C@H]2C(=O)NC3(CCC3)C(=O)N(C)[C@@H](C3CCCC3)C(=O)N(C)[C@H](C(=O)N3CCCCC3)CC(=O)N(C)[C@@H](C)C(=O)N[C@@H]([C@@H](C)CC)C(=O)N(C)CC(=O)N(C)[C@H]3C/C=C\CCN(C3=O)[C@@H](Cc3ccc(C(F)(F)F)cc3)C(=O)N(C)CC(=O)N[C@@H](CCc3cc(F)c(C(F)(F)F)c(F)c3)C(=O)N2C1 [PP1292] | A (a compound having 10 or more and less than 20 is denoted as A) | A (a compound having 10 or more and less than 20 is denoted as A) | 24.6 nM
CCC[C@H]1C(=O)N[C@@H]([C@@H](C)CC)C(=O)N(C)CC(=O)N(C)[C@H]2C/C=C\CCN(C2=O)[C@@H](Cc2ccc(C(F)(F)F)cc2)C(=O)N(C)CC(=O)N[C@@H](CCc2cc(F)c(C(F)(F)F)c(F)c2)C(=O)N2C[C@H](OCC)C[C@H]2C(=O)NC2(CCC2)C(=O)N(C)[C@@H](C2CCCC2)C(=O)N(C)[C@H](C(=O)N2CCCCC2)CC(=O)N1C [PP1294] | A (a compound having 10 or more and less than 20 is denoted as A) | A (a compound having 10 or more and less than 20 is denoted as A) | 10 nM
CC[C@H](C)[C@@H]1NC(=O)[C@H](CC)N(C)C(=O)C[C@@H](C(=O)N(C)C)N(C)C(=O)[C@H](C2CCCC2)N(C)C(=O)C2(CCCC2)NC(=O)[C@@H]2CCCN2C(=O)[C@H](CCc2ccc(C(F)(F)F)c(Cl)c2)NC(=O)CN(C)C(=O)[C@H](Cc2ccc(C(F)(F)F)cc2)N2C[C@H](C)CC[C@@H](C2=O)N(C)C(=O)CN(C)C1=O [PP1336] | B (a compound having 3 or more and less than 10 is denoted as B) | B (a compound having 3 or more and less than 10 is denoted as B) | 10.8 nM
CC[C@H](C)[C@@H]1NC(=O)[C@H](CC)N(C)C(=O)C[C@@H](C(=O)N2CCOCC2)N(C)C(=O)[C@H](C2CCCC2)N(C)C(=O)C2(CCCC2)NC(=O)[C@@H]2CCCN2C(=O)[C@H](CCc2ccc(C(F)(F)F)c(Cl)c2)NC(=O)CN(C)C(=O)[C@H](Cc2ccc(C(F)(F)F)cc2)N2C[C@H](C)CC[C@@H](C2=O)N(C)C(=O)CN(C)C1=O [PP1337] | B (a compound having 3 or more and less than 10 is denoted as B) | B (a compound having 3 or more and less than 10 is denoted as B) | 29.8 nM
CC[C@H](C)[C@@H]1NC(=O)[C@H](CC)N(C)C(=O)C[C@@H](C(=O)N2CCOCC2)N(C)C(=O)[C@H](C2CCCC2)N(C)C(=O)C2(CCC2)NC(=O)[C@@H]2CCCN2C(=O)[C@H](CCc2ccc(C(F)(F)F)c(Cl)c2)NC(=O)CN(C)C(=O)[C@H](Cc2ccc(C(F)(F)F)cc2)N2C[C@H](C)CC[C@@H](C2=O)N(C)C(=O)CN(C)C1=O [PP1338] | B (a compound having 3 or more and less than 10 is denoted as B) | B (a compound having 3 or more and less than 10 is denoted as B) | 35 nM
